Legend:
[1] = rats, recombinant L.IGF-I administered after ischemia; cited from earlier work
[2] = animal models of cardiomyopathy and clinical trials; cited from earlier work
cardiac myocytes = assay: Induction of endogenous MGF expression by PMA, real time RT-PCR; type: cell-based
Method: Primary cultures of cardiac myocytes were cultured in serum free media for 24 hours prior to the addition of PMA (200 nM). After 30 min total RNA was extracted and MGF gene expression was assayed using real time RT-PCR. […] B. A repeat of the initial experiment but in the third group PMA was added to the cultures without changing the media. MGF expression is increased to a great extent than when PMA is added with fresh media.
In order to investigate which signal appear to modulate MGF expression in cardiac myocytes, several drugs were applied to cardiomyocyte cultures. These in turn activate signal transduction molecules either directly or indirectly through receptor coupled molecules. One such drug is phorbol myristate acetate (PMA), a phorbol ester that specifically activates the Protein Kinase C family of serine/threonine signaling kinases. […] When the amount of MGF is compared to the amount of liver-type IGF in the control conditions, there is substantially less in the cardiac myocytes. […] When the same experiment was repeated but the PMA was added to myocyte cultures in which the media had not been changed for 24 hours prior to the addition of the PMA, the increase in MGF expression is even greater than when PMA is added along with fresh media (FIG. 5B).

For “recombinant L.IGF-I: recombinant systemic, liver-type IGF-I”, the “cell death following transient myocardial ischemia” value [1] is listed as “reduced cell death”.

For “growth hormone: growth hormone; induces expression of systemic insulin-like growth factors via the liver”, the cardiac function [2] is given as “Significant improvement”.

With `CCCCCCCCCCCCCC(=O)O[C@@H]1[C@@H](C)[C@@]2(O)[C@@H](C=C(CO)C[C@]3(O)C(=O)C(C)=C[C@@H]23)[C@@H]2C(C)(C)[C@]12OC(C)=O` [PMA, phorbol myristate acetate] the “level of IGF expression” value (cardiac myocytes; PMA 200 nM, 30 min) was “does not change”, the “expression of the endogenous MGF gene” value (cardiac myocytes; PMA 200 nM, 30 min, serum free media 24 hours, added with fresh media) was “significant increase” and the “increase in MGF expression, media not changed” value (cardiac myocytes; PMA added to cultures whose media had not been changed for 24 hours, versus PMA with fresh media) was “even greater”.

— patent publication US9919031B2, “Use of the insulin-like-growth factor 1 splice variant MGF for the prevention of myocardial damage” (THE BOARD OF TRUSTEES OF UNIVERSITY OF ILLINOIS, priority 2002, dated 2018)
